Among the data in patent US20250136619A1, “HETEROBIFUNCTIONAL COMPOUNDS AND THEIR USE IN TREATING DISEASE” (HALDA THERAPEUTICS OPCO, INC., priority 2021, published 2025) are GI50 and Kd values, retold here.

Where only a bound is given, the exact number is not on record here.

One assay deals with HeLa cells. The assay can be described thus: Cellular growth inhibition assay (CellTiter-Glo), HeLa cells. In kind it is cell-based. To be noted: Homo sapiens, 72 h; HeLa cells, three days of compound treatment, CellTiter-Glo 2.0; read-out: CTG HELA GI50. The method, then: (§1) HEK293 and HeLa cells were cultured in DMEM medium supplemented with 10% fetal bovine serum and 1% Penn/Strep. Cells were seeded in white 384-well plates at 500 cells/well in […] complete medium. Following seeding, plates were spun at 300×g for three minutes and cultured at 37° C. with 5% CO2 in a humidified tissue culture incubator.
(§2) After 24 hours, compounds were titrated in 100% DMSO and diluted in complete cell culture medium. […] of compound/media mixture was added to cells to bring total volume in well to […]. DMSO alone was used as a negative control. Plates were then spun at 300×g for three minutes and stored at 37° C. with 5% CO2 for three days.
(§3) On Day 0 and Day 3 of compound treatment, cell viability was quantified with CellTiter-Glo 2.0 reagent (Promega). After equilibrating microplates at room temperature for 30 minutes, 25 μL CellTiter-Glo 2.0 reagent was dispensed into each well to bring total volume to […]. Plates were mixed on shaker for 2 minutes at 500 rpm, followed by a 10-minute incubation at room temperature. Following a quick spin, luminescence readings were measured with an En Vision Plate Reader. Data was normalized to DMSO treated Day 0 and Day 3 readings. A four-parameter non-linear regression curve fit was applied to dose-response data in GraphPad Prism data analysis software to determine the half maximal growth inhibitory concentration (GI50) for each compound.
For orientation: ATP-based viability assays read luminescence as a measure of living cells.

A further assay concerns HEK293 cells. The assay is described as follows: Cellular growth inhibition assay (CellTiter-Glo), HEK293 cells. Conditions: Homo sapiens, 72 h; HEK293 cells, three days of compound treatment, CellTiter-Glo 2.0; read-out: CTG HEK293 GI50. Type of assay: cell-based. The method, then:
as §1, §2, §3

A further assay addresses CDK9 (Homo sapiens (Human), UniProt P50750). The assay is described as follows: KdELECT assay for binding affinity to CDK9. The method, then:
(§4) Compounds were tested using a KdELECT. Kinase-tagged T7 phage strains were prepared in an E. coli host derived from the BL21 strain. E. coli were grown to log-phase and infected with T7 phage and incubated with shaking at 32° C. until lysis. The lysates were centrifuged and filtered to remove cell debris. The remaining kinases were produced in HEK-293 cells and subsequently tagged with DNA for qPCR detection. Streptavidin-coated magnetic beads were treated with biotinylated small molecule ligands for 30 minutes at room temperature to generate affinity resins for kinase assays. The liganded beads were blocked with excess biotin and washed with blocking buffer (SeaBlock (Pierce), 1% BSA, 0.05% Tween 20, 1 mM DTT) to remove unbound ligand and to reduce non-specific binding. Binding reactions were assembled by combining kinases, liganded affinity beads, and test compounds in 1×binding buffer (20% SeaBlock, 0.17×PBS, 0.05% Tween 20, 6 mM DTT). Test compounds were prepared as 111X stocks in 100% DMSO. Kd values were determined using an 11-point 3-fold compound dilution series with three DMSO control points. All compounds for Kd measurements are distributed by acoustic transfer (non-contact dispensing) in 100% DMSO. The compounds were then diluted directly into the assays such that the final concentration of DMSO was 0.9%. All reactions performed in polypropylene 384-well plate. Each was a final volume of 0.02 mL. The assay plates were incubated at room temperature with shaking for 1 hour and the affinity beads were washed with wash buffer (1×PBS, 0.05% Tween 20). The beads were then re-suspended in elution buffer (1×PBS, 0.05% Tween 20, 0.5 μM nonbiotinylated affinity ligand) and incubated at room temperature with shaking for 30 minutes. The kinase concentration in the eluates was measured by qPCR.

The next assay concerns the target BTK (Homo sapiens (Human), UniProt Q06187). The assay is described as follows: KdELECT assay for binding affinity to BTK. The method, then:
as §4, with “KdELECT assay.” for “KdELECT.”, “1× binding” for “1×binding”

Chain of CDK9 (P50750 whole entry): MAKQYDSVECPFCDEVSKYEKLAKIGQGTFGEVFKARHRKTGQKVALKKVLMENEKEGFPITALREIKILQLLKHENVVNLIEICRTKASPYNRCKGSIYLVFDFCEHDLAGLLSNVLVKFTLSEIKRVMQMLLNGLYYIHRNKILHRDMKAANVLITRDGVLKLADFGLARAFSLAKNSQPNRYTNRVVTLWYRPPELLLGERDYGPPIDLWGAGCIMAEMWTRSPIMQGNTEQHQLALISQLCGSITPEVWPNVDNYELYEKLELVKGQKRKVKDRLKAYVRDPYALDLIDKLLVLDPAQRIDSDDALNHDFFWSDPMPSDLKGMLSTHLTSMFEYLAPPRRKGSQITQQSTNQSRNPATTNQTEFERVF
Chain of BTK (Q06187 whole entry): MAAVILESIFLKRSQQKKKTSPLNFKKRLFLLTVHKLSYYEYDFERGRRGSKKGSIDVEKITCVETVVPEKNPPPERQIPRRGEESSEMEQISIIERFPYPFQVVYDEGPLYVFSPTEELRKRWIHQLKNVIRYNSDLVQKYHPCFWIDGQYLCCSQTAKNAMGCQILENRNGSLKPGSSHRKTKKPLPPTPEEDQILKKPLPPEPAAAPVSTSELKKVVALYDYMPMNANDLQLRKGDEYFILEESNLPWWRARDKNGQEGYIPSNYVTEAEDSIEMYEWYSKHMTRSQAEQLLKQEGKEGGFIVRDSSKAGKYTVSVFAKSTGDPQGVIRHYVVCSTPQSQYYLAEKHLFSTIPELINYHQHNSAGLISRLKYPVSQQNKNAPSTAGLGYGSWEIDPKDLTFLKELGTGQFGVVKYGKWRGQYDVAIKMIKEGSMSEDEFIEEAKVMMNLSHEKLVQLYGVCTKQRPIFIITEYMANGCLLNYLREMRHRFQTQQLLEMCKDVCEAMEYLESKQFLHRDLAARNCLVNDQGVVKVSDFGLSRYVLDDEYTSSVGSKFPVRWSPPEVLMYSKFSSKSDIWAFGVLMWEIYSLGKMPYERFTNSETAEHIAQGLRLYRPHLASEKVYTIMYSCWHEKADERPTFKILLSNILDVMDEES

Broadly, the GI50 is the concentration at which growth is held to half of that of the control. Usually Kd stands for the concentration at which binding is half-saturated. A higher Kd goes with lower affinity. For `CCc1cnn2c(NCc3ccc(=O)n(CCOCCOCCNS(=O)(=O)c4cc(F)cc(N(C(=O)[C@@H]5CCC(=O)N5c5cc(C#N)ccn5)C(C(=O)NC5CC(F)(F)C5)c5ccccc5Cl)c4)c3)cc(N3CCCC[C@H]3CCO)nc12` (stereo partly drawn) [Compound I-93, (2S)—N-[1-(2-chlorophenyl)-2-[(3,3-difluorocyclobutyl)amino]-2-oxo-ethyl]-1-(4-cyano-2-pyridyl)-N-[3-[2-[2-[2-[5-[ [[3-ethyl-5-[(2S)-2-(2-hydroxyethyl)-1-piperidyl]pyrazolo[1,5-a]pyrimidin-7-yl]amino]methyl]-2-oxo-1-pyridyl]ethoxy]ethoxy]ethylsulfamoyl]-5-fluoro-phenyl]-5-oxo-pyrrolidine-2-carboxamide], the results for the GI50 in the assay on HeLa cells and with HEK293 cells were 1500 to 5000 nM and greater than 5000 nM, respectively. In addition, on CDK9, the Kd fell in the range of 500 to 2500 nM.

In turn, `C=CC(=O)N1CCN([C@@H](CC2CC2)c2ccc([C@H](C)Nc3ncc4c(n3)N(CCOCCOCCOc3ccc(CNc5cc(N6CCCC[C@H]6CCO)nc6c(CC)cnn56)cn3)C(=O)OC4)cc2)CC1` [Compound I-55] registered a Kd on CDK9 of 50 to 500 nM.

`CCc1cnn2c(NCc3ccc(OCCOCCOCCOCCOCC(=O)N4CC(=O)N(c5cc(C#N)ccn5)[C@H](C(=O)N(c5cc(F)cc(F)c5)C(C(=O)NC5CC(F)(F)C5)c5ccccc5Cl)C4)nc3)cc(N3CCCC[C@H]3CCO)nc12` (stereo partly drawn) [Compound I-98, (2S)—N-[1-(2-chlorophenyl)-2-[(3,3-difluorocyclobutyl)amino]-2-oxo-ethyl]-1-(4-cyano-2-pyridyl)-N-(3,5-difluorophenyl)-4-[2-[2-[2-[2-[2-[[5-[[[3-ethyl-5-[(2S)-2-(2-hydroxyethyl)-1-piperidyl]pyrazolo[1,5-a]pyrimidin-7-yl]amino]methyl]-2-pyridyl]oxy]ethoxy]ethoxy]ethoxy]ethoxy]acetyl]-6-oxo-piperazine-2-carboxamide]: the GI50 with HeLa cells and in the assay on HEK293 cells was less than 500 nM in each case. This compound registered a Kd on CDK9 of 50 to 500 nM.

`CCc1cnn2c(NCc3ccc(OCC(=O)N4CC(=O)N(c5cc(C#N)ccn5)[C@H](C(=O)N(c5cc(F)cc(F)c5)[C@H](C(=O)NC5CC(F)(F)C5)c5ccccc5Cl)C4)nc3)cc(N3CCCC[C@H]3CCO)nc12` [Compound I-96, (2S)—N-[(1S)-1-(2-chlorophenyl)-2-[(3,3-difluorocyclobutyl)amino]-2-oxo-ethyl]-1-(4-cyano-2-pyridyl)-N-(3,5-difluorophenyl)-4-[2-[[5-[[[3-ethyl-5-[(2S)-2-(2-hydroxyethyl)-1-piperidyl]pyrazolo[1,5-a]pyrimidin-7-yl]amino]methyl]-2-pyridyl]oxy]acetyl]-6-oxo-piperazine-2-carboxamide]: the concentration for 50% growth inhibition (GI50) in the assay with HeLa cells and in the assay on HEK293 cells was less than 500 nM throughout. In addition, the Kd on CDK9 lay in the range of 50 to 500 nM.

Take `CCc1cnn2c(NCc3ccc(OCCOCCOCCOCCOCCOCCOCCOCCOCCN(C)C/C=C/C(=O)N4CCC[C@@H](n5nc(-c6ccc(Oc7ccccc7)cc6)c6c(N)ncnc65)C4)nc3)cc(N3CCCC[C@H]3CCO)nc12` [Compound I-48]: the GI50 in the assay on HeLa cells and in the assay with HEK293 cells was 1500 to 5000 nM throughout. The compound also came in with a Kd at BTK of less than 50 nM.

`C=CC(=O)N1CCN([C@@H](CC2CC2)c2ccc([C@H](C)Nc3ncc4c(n3)N(CCOCCOCCOCCOCCOCCOCCn3cc(CNc5cc(N6CCCC[C@H]6CCO)nc6c(CC)cnn56)ccc3=O)C(=O)OC4)cc2)CC1` [Compound I-87] showed a Kd at CDK9 of less than 50 nM.

`CC[C@@H]1C(=O)N(C)c2cnc(Nc3ccc(C(=O)NCCOCCOCCOC/C=C/C(=O)N4CCC[C@@H](n5nc(-c6ccc(Oc7ccccc7)cc6)c6c(N)ncnc65)C4)cc3OC)nc2N1C1CCCC1` [Compound I-37, N-[2-[2-[2-[(E)-4-[(3R)-3-[4-amino-3-(4-phenoxyphenyl)pyrazolo[3,4-d]pyrimidin-1-yl]-1-piperidyl]-4-oxo-but-2-enoxy]ethoxy]ethoxy]ethyl]-4-[[(7R)-8-cyclopentyl-7-ethyl-5-methyl-6-oxo-7H-pteridin-2-yl]amino]-3-methoxy-benzamide] came in with a Kd at BTK of 50 to 500 nM.

In the case of `C=CC(=O)N1CCN([C@@H](CC2CC2)c2ccc([C@H](C)Nc3ncc4c(n3)N(CCOCCOCCn3cc(CNc5cc(N6CCCC[C@H]6CCO)nc6c(CC)cnn56)ccc3=O)C(=O)OC4)cc2)CC1` [Compound I-56], at CDK9, the Kd lay within 50 to 500 nM.

In turn, `CC[C@@H]1C(=O)N(C)c2cnc(Nc3ccc(C(=O)NCCOCCOCCOCCOCCOCCOCCOC/C=C/C(=O)N4CCC[C@@H](n5nc(-c6ccc(Oc7ccccc7)cc6)c6c(N)ncnc65)C4)cc3OC)nc2N1C1CCCC1` [Compound I-39, N-[2-[2-[2-[2-[2-[2-[2-[(E)-4-[(3R)-3-[4-amino-3-(4-phenoxyphenyl)pyrazolo[3,4-d]pyrimidin-1-yl]-1-piperidyl]-4-oxo-but-2-enoxy]ethoxy]ethoxy]ethoxy]ethoxy]ethoxy]ethoxy]ethyl]-4-[[(7R)-8-cyclopentyl-7-ethyl-5-methyl-6-oxo-7H-pteridin-2-yl]amino]-3-methoxy-benzamide] came in with a Kd on BTK of less than 50 nM.

On to `CN(OCCOCCOCCOCCOCCOCCOCCOC/C=C/C(=O)N1CCC[C@@H](n2nc(-c3ccc(Oc4ccccc4)cc3)c3c(N)ncnc32)C1)C(=O)N1N=C(c2cc(F)ccc2F)SC1(CCCN)c1ccccc1` (stereo partly shown) [Compound I-51], for which the GI50 with HeLa cells is 500 to 1500 nM; in the assay with HEK293 cells, 1500 to 5000 nM. Also, on BTK, the Kd was less than 50 nM.

`C=CC(=O)N1CCN([C@@H](CC2CC2)c2ccc([C@H](C)Nc3ncc4c(n3)N(CCOCCOCCOCCOCCOCCOCCNS(=O)(=O)c3ccc(Nc5ncc(Br)c(Nc6cccc(F)c6C(N)=O)n5)cc3)C(=O)OC4)cc2)CC1` [Compound I-86, 2-[[5-bromo-2-[4-[2-[2-[2-[2-[2-[2-[2-[7-[[(1S)-1-[4-[(1S)-2-cyclopropyl-1-(4-prop-2-enoylpiperazin-1-yl)ethyl]phenyl]ethyl]amino]-2-oxo-4H-pyrimido[4,5-d][1,3]oxazin-1-yl]ethoxy]ethoxy]ethoxy]ethoxy]ethoxy]ethoxy]ethylsulfamoyl]anilino]pyrimidin-4-yl]amino]-6-fluoro-benzamide] yielded a Kd at CDK9 of 500 to 2500 nM.

For the compound `C=CC(=O)N1CCN([C@@H](CC2CC2)c2ccc([C@H](C)Nc3ncc4c(n3)N(CCOCCOCCOCCOCCOCCOCCOc3ccc(CNc5cc(N6CCCC[C@H]6CCO)nc6c(CC)cnn56)cn3)C(=O)OC4)cc2)CC1` [Compound I-83], the dissociation constant (Kd) at CDK9 was less than 50 nM.
